For five compounds, IC50 results are on record in ChEMBL document CHEMBL2074482 (J Pharmacol Sci, 2004).

In assay [1] the target is T1, Organic anion transporter 3 (Rattus norvegicus, UniProt Q9R1U7).
T1 sequence (Q9R1U7 whole entry): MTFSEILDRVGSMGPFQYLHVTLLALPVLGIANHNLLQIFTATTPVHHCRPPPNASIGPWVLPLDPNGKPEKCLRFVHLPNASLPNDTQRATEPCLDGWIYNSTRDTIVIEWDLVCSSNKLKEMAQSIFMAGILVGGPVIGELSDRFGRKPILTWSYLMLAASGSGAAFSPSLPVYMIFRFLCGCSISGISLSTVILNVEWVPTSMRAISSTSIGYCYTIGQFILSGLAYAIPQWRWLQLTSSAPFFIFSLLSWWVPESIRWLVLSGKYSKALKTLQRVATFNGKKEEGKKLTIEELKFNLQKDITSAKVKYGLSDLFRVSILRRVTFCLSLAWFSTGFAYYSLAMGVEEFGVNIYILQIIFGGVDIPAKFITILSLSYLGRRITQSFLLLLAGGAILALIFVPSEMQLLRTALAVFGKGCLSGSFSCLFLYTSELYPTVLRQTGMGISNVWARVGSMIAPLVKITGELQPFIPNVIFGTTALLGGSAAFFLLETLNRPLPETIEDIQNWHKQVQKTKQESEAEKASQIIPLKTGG
As to the kind of experiment: TP_TRANSPORTER: inhibition of ES uptake (ES: 50nM) in rOAT3-expressing S2 cells. The class given is functional, cell-based.

The target of assay [2] is T2, Organic anion transporter 3 (Homo sapiens, UniProt Q8TCC7).
T2 sequence (Q8TCC7 whole entry): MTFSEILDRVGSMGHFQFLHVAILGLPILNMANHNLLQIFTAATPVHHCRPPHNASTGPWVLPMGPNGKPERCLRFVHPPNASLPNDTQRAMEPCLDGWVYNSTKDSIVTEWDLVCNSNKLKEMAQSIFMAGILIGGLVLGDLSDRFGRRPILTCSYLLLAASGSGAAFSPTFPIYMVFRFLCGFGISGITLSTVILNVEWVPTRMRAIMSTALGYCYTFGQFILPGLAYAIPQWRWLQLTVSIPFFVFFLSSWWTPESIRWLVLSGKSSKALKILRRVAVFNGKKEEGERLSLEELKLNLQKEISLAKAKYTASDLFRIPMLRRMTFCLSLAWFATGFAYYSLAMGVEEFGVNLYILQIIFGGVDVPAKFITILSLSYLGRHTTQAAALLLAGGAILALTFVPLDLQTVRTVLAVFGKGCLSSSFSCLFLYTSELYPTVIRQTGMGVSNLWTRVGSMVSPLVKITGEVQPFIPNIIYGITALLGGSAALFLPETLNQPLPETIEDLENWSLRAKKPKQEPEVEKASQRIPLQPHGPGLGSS
Description: TP_TRANSPORTER: inhibition of ES uptake (ES: 50nM) in hOAT3-expressing S2 cells. The class given is functional, cell-based.

Assay [3] concerns the target T3, Solute carrier family 22 member 11 (Homo sapiens, UniProt Q9NSA0).
T3 sequence (Q9NSA0 whole entry): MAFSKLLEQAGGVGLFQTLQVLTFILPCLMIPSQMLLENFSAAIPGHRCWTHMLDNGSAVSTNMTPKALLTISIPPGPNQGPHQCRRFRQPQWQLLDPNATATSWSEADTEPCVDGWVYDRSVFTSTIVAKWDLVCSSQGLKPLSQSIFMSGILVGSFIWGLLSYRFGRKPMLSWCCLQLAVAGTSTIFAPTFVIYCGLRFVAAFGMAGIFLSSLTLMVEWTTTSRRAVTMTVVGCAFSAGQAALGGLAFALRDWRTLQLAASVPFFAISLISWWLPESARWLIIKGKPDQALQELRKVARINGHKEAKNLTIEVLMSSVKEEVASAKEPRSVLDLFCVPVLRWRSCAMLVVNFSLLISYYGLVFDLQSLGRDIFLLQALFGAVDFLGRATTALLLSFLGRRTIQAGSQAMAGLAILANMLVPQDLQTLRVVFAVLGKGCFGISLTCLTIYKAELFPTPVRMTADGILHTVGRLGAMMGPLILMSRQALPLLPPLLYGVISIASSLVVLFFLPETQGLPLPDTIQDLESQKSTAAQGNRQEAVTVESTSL
Description: TP_TRANSPORTER: inhibition of ES uptake (ES: 50nM) in hOAT4-expressing S2 cells. It counts as functional, cell-based.

Assay [4] deals with T4, Solute carrier family 22 member 6 (Rattus norvegicus, UniProt O35956).
T4 sequence (O35956 whole entry): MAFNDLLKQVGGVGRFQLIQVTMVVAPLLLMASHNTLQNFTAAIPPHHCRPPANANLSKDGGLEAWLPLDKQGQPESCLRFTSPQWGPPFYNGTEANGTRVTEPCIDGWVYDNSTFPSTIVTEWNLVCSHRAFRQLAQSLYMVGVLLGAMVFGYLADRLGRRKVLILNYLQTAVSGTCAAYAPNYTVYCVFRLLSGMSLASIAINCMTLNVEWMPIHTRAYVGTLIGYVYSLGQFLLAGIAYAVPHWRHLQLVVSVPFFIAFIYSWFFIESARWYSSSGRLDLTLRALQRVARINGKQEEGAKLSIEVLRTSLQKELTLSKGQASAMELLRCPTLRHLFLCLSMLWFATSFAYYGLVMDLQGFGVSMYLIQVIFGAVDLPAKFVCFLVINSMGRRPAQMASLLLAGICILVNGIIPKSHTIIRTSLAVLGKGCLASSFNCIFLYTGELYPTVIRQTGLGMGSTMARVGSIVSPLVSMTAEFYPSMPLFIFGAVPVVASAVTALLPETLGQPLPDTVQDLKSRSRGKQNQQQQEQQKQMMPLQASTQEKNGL

In assay [5] the target is T5, Solute carrier family 22 member 7 (Rattus norvegicus, UniProt Q5RLM2).
T5 sequence (Q5RLM2 whole entry): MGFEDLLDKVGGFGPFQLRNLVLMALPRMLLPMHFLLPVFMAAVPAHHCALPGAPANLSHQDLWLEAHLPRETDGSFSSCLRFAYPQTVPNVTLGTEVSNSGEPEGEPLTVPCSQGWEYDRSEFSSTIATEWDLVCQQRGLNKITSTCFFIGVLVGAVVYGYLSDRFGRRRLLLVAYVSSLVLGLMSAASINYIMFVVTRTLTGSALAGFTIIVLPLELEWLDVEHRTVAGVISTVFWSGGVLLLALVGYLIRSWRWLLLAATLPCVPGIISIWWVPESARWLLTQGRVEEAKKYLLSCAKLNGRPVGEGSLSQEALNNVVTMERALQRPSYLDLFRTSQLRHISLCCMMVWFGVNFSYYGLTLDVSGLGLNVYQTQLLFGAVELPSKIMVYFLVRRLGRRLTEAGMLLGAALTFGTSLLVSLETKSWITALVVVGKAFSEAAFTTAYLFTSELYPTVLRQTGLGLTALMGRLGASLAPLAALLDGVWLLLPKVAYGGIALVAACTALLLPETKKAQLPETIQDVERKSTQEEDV
Description: TP_TRANSPORTER: inhibition of PGF2alpha uptake (PGF2: 50nM) in rOAT2-expressing S2 cells. It counts as functional, cell-based.

In assay [6] the target is T6, Solute carrier family 22 member 7 (Homo sapiens, UniProt Q9Y694).
T6 sequence (Q9Y694 whole entry): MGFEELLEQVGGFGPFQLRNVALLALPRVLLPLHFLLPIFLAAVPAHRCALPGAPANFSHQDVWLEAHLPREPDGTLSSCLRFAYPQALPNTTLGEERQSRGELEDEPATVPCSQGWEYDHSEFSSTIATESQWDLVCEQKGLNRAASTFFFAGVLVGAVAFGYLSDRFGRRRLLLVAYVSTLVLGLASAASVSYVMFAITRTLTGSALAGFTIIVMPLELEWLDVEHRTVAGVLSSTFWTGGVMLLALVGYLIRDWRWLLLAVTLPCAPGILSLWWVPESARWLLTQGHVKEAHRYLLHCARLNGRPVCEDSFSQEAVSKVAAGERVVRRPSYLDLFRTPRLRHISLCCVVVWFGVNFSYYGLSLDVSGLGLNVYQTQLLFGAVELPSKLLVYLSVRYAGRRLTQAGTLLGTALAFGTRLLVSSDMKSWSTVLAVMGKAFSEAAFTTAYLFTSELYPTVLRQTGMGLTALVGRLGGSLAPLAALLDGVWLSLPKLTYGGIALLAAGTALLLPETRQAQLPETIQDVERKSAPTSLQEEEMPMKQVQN
As to the kind of experiment: TP_TRANSPORTER: inhibition of PGF2alpha uptake (PGF2: 50nM) in hOAT2-expressing S2 cells. It counts as functional, cell-based.

A value given as a limit tells only on which side of the number the result lay.

A word on the IC50: it is the concentration at which inhibition is half-maximal. Higher therefore signals lower potency. In the case of `O=C(O)CCNC(=O)c1ccccc1` [BETAMIPRON], the values for the IC50 in assay [1], in assay [2] and in assay [3] were 47.5 µM, 9.92 µM and 483 µM, respectively.
As to `CC1(C)C[C@@H]1C(=O)N/C(=C\CCCCSC[C@H](N)C(=O)O)C(=O)O` [CILASTATIN], the 50% inhibitory concentration (IC50) in assay [1] was found to be 742 µM; in assay [2], 249 µM.
In the case of `CN/C(=N/CCSCc1nc[nH]c1C)NC#N` [CIMETIDINE], the IC50 was 166 µM in assay [1], 92.4 µM in assay [2], over 2000 µM in assay [3] and over 2000 µM in assay [4].
On to `CC[C@H](C)C(=O)O[C@H]1C[C@H](O)C=C2C=C[C@H](C)[C@H](CC[C@@H](O)C[C@@H](O)CC(=O)O)[C@H]21` [PRAVASTATIN], for which the 50% inhibitory concentration (IC50) in assay [5] came to 449 µM; in assay [1], 15.6 µM; in assay [2], 13.7 µM; in assay [6] it was 352 µM; in assay [3], 591 µM.
On to `CCCN(CCC)S(=O)(=O)c1ccc(C(=O)O)cc1` [PROBENECID], for which the concentration for half-maximal inhibition (IC50) in assay [5] worked out at 977 µM; in assay [1], 6.03 µM; in assay [6], 668 µM.
